For 24 compounds, IC50, Ki and type of inhibition results are on record in paper PMC9960759, “Discovery of New Boswellic Acid Hybrid 1H-1,2,3-Triazoles for Diabetic Management: In Vitro and In Silico Studies” (Pharmaceuticals, 2023).

Molecules are shown by their SMILES. Like-named read-outs stand apart in the source and are kept apart here.

Experiment [1] has as its target α-glucosidase (EC 3.2.1.20).
Description: The α-glucosidase (EC 3.2.1.20; Saccharomyces cerevisiae) assay was carried out using 50 mM of phosphate buffer (pH = 6.8). The test samples were dissolved in DMSO. The enzyme (1U/2mL) dissolved in phosphate buffer: 20 µL/well of enzyme, 20 µL/well of test samples, and 135 µL/well of phosphate buffer were employed in the 96-well plate. After adding all of these into the 96-well plate, followed by 15 min incubation at 37 °C, 25 µL/well of substrate para-nitro phenyl-α-D-glucopyranoside (0.7 mM) was added to the 96-well plate, and measurements were taken at 400 nm for 30 min using a spectrophotometer (xMarkTM Microplate, Bio-Rad, Hercules, CA, USA). As a control, 7% DMSO was employed. […] For mechanistic studies, a similar procedure was employed, with the addition of four different substrate concentrations: 0.1, 0.2, 0.4, and 0.8 µM. The percentage of inhibition was estimated using the following formula: % Inhibition=100×O.D. of test compound/O.D. of control−100
The target in a further experiment is α-glucosidase. In words: Kinetic (mechanistic) studies of α-glucosidase inhibition. The format is biochemical, Saccharomyces cerevisiae. Conditions: for Ki: four substrate concentrations, Lineweaver–Burk / Dixon plots; for type of inhibition: kinetic studies. As to the method: In this type of inhibition, the inhibitor binds with the active site residue of enzyme and, therefore, Vmax remains the same, with an increase in the Km. […] In this type of inhibition, both inhibitors—Vmax and Km—are affected by Vmax decreases and Km increases. […] The test samples were dissolved in DMSO. […] (B) Secondary replot of Lineweaver–Burk plot between the slopes of each Lineweaver–Burk plot vs. different concentrations of compound 6f. (C) Dixon plot of reciprocal of rate of reaction (velocities) vs. different concentrations of compound 6f. […] (B) Secondary replot of Lineweaver–Burk plot between the slopes of each Lineweaver–Burk plot vs. different concentrations of compound 7h. (C) Dixon plot of reciprocal of rate of reaction (velocities) vs. different concentrations of compound 7h.

[2] abbreviates: read-out: IC50, α-glucosidase-inhibitory activity.
The mark [3] stands for this setting: read-out: IC50 ± µM, in vitro α-glucosidase-inhibitory activity, Table 2, substrate p-nitrophenyl-α-D-glucopyranoside 0.7 mM, pH 6.8, 37 °C.

Consider `CC(=O)OC1CCC2(C)C(CCC3(C)C2C(=O)C=C2C4C(C)C(C)CCC4(C)CCC23C)C1(C)C(=O)OCn1cc(-c2ccccc2)nn1` (stereo not drawn) [6a, (4-Phenyl-1H-1,2,3-triazol-1-yl) Methyl 3α-acetyloxy-11-oxo-urs-12-en-24-oate], for which the concentration for half-maximal inhibition (IC50) in experiment [1] (setting [2]) came to 2.02 ± 0.031 µM; in experiment [1] (setting [3]) it was 2.02 ± 0.03 µM.
On the same counts, the results for `CC(=O)O[C@@H]1CC[C@@]2(C)[C@@H](CC[C@]3(C)[C@@H]2C(=O)C=C2[C@@H]4[C@@H](C)[C@H](C)CC[C@]4(C)CC[C@]23C)[C@@]1(C)C(=O)OCn1cc(-c2ccccc2C)nn1` [6b, (4-(O-tolyl)-1H-1,2,3-triazol-1-yl) Methyl 3α-acetyloxy-11-oxo-urs-12-en-24-oate] are 2.25 ± 0.1 µM and 2.25 ± 0.1 µM.
On the same counts, the results for `COc1ccccc1-c1cn(COC(=O)C2(C)C(OC(C)=O)CCC3(C)C2CCC2(C)C3C(=O)C=C3C4C(C)C(C)CCC4(C)CCC32C)nn1` (stereo not drawn) [6c, (4-(Ortho-methoxyphenyl)-1H-1,2,3-triazol-1-yl) Methyl 3α-acetyloxy-11-oxo-urs-12-en-24-oate] are 1.23 µM and 1.23 ± 0.08 µM.
The corresponding values for `CC(=O)O[C@@H]1CC[C@@]2(C)[C@@H](CC[C@]3(C)[C@@H]2C(=O)C=C2[C@@H]4[C@@H](C)[C@H](C)CC[C@]4(C)CC[C@]23C)[C@@]1(C)C(=O)OCn1cc(-c2ccccc2C(F)(F)F)nn1` [6d] are 2.37 µM and 2.37 ± 0.11 µM.
Regarding `COc1ccc(-c2cn(COC(=O)C3(C)C(OC(C)=O)CCC4(C)C3CCC3(C)C4C(=O)C=C4C5C(C)C(C)CCC5(C)CCC43C)nn2)cc1` (stereo not drawn) [6e, (4-(Para-methoxyphenyl)-1H-1,2,3-triazol-1-yl) Methyl 3α-acetyloxy-11-oxo-urs-12-en-24-oate], the figures for the IC50 in experiment [1] (setting [2]) and in experiment [1] (setting [3]) were 2.01 µM and 2.01 ± 0.09 µM, respectively.
As to `CC(=O)OC1CCC2(C)C(CCC3(C)C2C(=O)C=C2C4C(C)C(C)CCC4(C)CCC23C)C1(C)C(=O)OCn1cc(-c2cccc(C(F)(F)F)c2)nn1` (stereo not shown) [6f], the IC50 in experiment [1] (setting [2]) was found to be 0.22 µM. Further, the concentration for half-maximal inhibition (IC50) in experiment [1] (setting [3]) was determined as 0.22 ± 0.08 µM. In addition, at α-glucosidase, the inhibition constant Ki was 840 ± 7 nM and the type of inhibition entry is “competitive”.
As to `CC(=O)O[C@@H]1CC[C@@]2(C)[C@@H](CC[C@]3(C)[C@@H]2C(=O)C=C2[C@@H]4[C@@H](C)[C@H](C)CC[C@]4(C)CC[C@]23C)[C@@]1(C)C(=O)OCn1cc(-c2cccc(Br)c2)nn1` [6g], the IC50 in experiment [1] (setting [2]) is 0.78 µM; in experiment [1] (setting [3]), 0.78 ± 0.01 µM. Besides, the Ki on α-glucosidase was 840 ± 7 nM. Moreover, the type of inhibition result in the experiment with α-glucosidase is reported as “competitive”.
`CC(=O)OC1CCC2(C)C(CCC3(C)C2C(=O)C=C2C4C(C)C(C)CCC4(C)CCC23C)C1(C)C(=O)OCn1cc(-c2ccc(Br)cc2)nn1` (stereo not shown) [6h]: the IC50 is 0.69 µM in experiment [1] (setting [2]) and 0.69 ± 0.04 µM in experiment [1] (setting [3]).
On the same counts, the results for `CC(=O)O[C@@H]1CC[C@@]2(C)[C@@H](CC[C@]3(C)[C@@H]2C(=O)C=C2[C@@H]4[C@@H](C)[C@H](C)CC[C@]4(C)CC[C@]23C)[C@@]1(C)C(=O)OCn1cc(-c2ccc(Cl)cc2)nn1` [6i] are 3.06 µM and 3.06 ± 0.22 µM.
The corresponding values for `CC(=O)O[C@@H]1CC[C@@]2(C)[C@@H](CC[C@]3(C)[C@@H]2C(=O)C=C2[C@@H]4[C@@H](C)[C@H](C)CC[C@]4(C)CC[C@]23C)[C@@]1(C)C(=O)OCn1cc(-c2ccc(F)cc2)nn1` [6j] are 0.58 µM and 0.58 ± 0.04 µM.
As to `CC(=O)O[C@@H]1CC[C@@]2(C)[C@@H](CC[C@]3(C)[C@@H]2C(=O)C=C2[C@@H]4[C@@H](C)[C@H](C)CC[C@]4(C)CC[C@]23C)[C@@]1(C)C(=O)OCn1cc(-c2ccc(C(F)(F)F)cc2)nn1` [6k], the 50% inhibitory concentration (IC50) in experiment [1] (setting [2]) was 1.26 µM; in experiment [1] (setting [3]) it was 1.26 ± 0.05 µM.
On the same counts, the results for `CC1CCC2(C)CCC3(C)C(=CC(=O)C4C5(C)CCC(O)C(C)(C(=O)OCn6cc(-c7ccccc7)nn6)C5CCC43C)C2C1C` (stereo not drawn) [7a, (4-Phenyl-1H-1,2,3-triazol-1-yl) Methyl 3α-hydroxy-11-oxo-urs-12-en-24-oate] are 2.31 µM and 2.31 ± 0.17 µM.
The corresponding values for `Cc1ccccc1-c1cn(COC(=O)C2(C)C(O)CCC3(C)C2CCC2(C)C3C(=O)C=C3C4C(C)C(C)CCC4(C)CCC32C)nn1` (stereo not drawn) [7b, (4-(Ortho-tolyl)-1H-1,2,3-triazol-1-yl) Methyl 3α-hydroxy-11-oxo-urs-12-en-24-oate] are 2.11 µM and 2.11 ± 0.1 µM.
Turning to `COc1ccccc1-c1cn(COC(=O)[C@@]2(C)[C@H](O)CC[C@@]3(C)[C@H]2CC[C@]2(C)[C@@H]3C(=O)C=C3[C@@H]4[C@@H](C)[C@H](C)CC[C@]4(C)CC[C@]32C)nn1` [7c, (4-(Ortho-methoxyphenyl)-1H-1,2,3-triazol-1-yl) Methyl 3α-hydroxy-11-oxo-urs-12-en-24-oate], the IC50 is 2.18 µM in experiment [1] (setting [2]) and 2.18 ± 0.01 µM in experiment [1] (setting [3]).
The corresponding values for `CC(=O)O[C@@H]1CC[C@@]2(C)[C@@H](CC[C@]3(C)[C@@H]2C(=O)C=C2[C@@H]4[C@@H](C)[C@H](C)CC[C@]4(C)CC[C@]23C)[C@@]1(C)C(=O)OCn1cc(-c2ccccc2C(F)(F)F)nn1` [7d] are 2.62 µM and 2.62 ± 0.06 µM.
On the same counts, the results for `COc1ccc(-c2cn(COC(=O)C3(C)C(O)CCC4(C)C3CCC3(C)C4C(=O)C=C4C5C(C)C(C)CCC5(C)CCC43C)nn2)cc1` (stereo not drawn) [7e, (4-(Para-methoxyphenyl)-1H-1,2,3-triazol-1-yl) Methyl 3α-hydroxy-11-oxo-urs-12-en-24-oate] are 2.37 µM and 2.37 ± 0.07 µM.
On the same counts, the results for `CC1CCC2(C)CCC3(C)C(=CC(=O)C4C5(C)CCC(O)C(C)(C(=O)OCn6cc(-c7cccc(C(F)(F)F)c7)nn6)C5CCC43C)C2C1C` (stereo not shown) [7f] are 2.52 µM and 2.52 ± 0.12 µM.
In the case of `C[C@H]1[C@H](C)CC[C@]2(C)CC[C@]3(C)C(=CC(=O)[C@@H]4[C@@]5(C)CC[C@@H](O)[C@](C)(C(=O)OCn6cc(-c7cccc(Br)c7)nn6)[C@@H]5CC[C@]43C)[C@H]12` [7g], the 50% inhibitory concentration (IC50) is 1.34 µM in experiment [1] (setting [2]) and 1.34 ± 0.02 µM in experiment [1] (setting [3]).
With `C[C@H]1[C@H](C)CC[C@]2(C)CC[C@]3(C)C(=CC(=O)[C@@H]4[C@@]5(C)CC[C@@H](O)[C@](C)(C(=O)OCn6cc(-c7ccc(Br)cc7)nn6)[C@@H]5CC[C@]43C)[C@H]12` [7h], the figures for the 50% inhibitory concentration (IC50) in experiment [1] (setting [2]) and in experiment [1] (setting [3]) were 0.43 µM and 0.43 ± 0.05 µM, respectively. The compound also gave an inhibition constant (Ki) at α-glucosidase of 1180 ± 1.2 nM. Moreover, the type of inhibition result with α-glucosidase was “mixed”.
Consider `CC(=O)O[C@@H]1CC[C@@]2(C)[C@@H](CC[C@]3(C)[C@@H]2C(=O)C=C2[C@@H]4[C@@H](C)[C@H](C)CC[C@]4(C)CC[C@]23C)[C@@]1(C)C(=O)OCn1cc(-c2ccc(Cl)cc2)nn1` [7i], for which the IC50 in experiment [1] (setting [2]) came out at 3.18 µM; in experiment [1] (setting [3]), 3.18 ± 0.69 µM.
The corresponding values for `CC(=O)O[C@@H]1CC[C@@]2(C)[C@@H](CC[C@]3(C)[C@@H]2C(=O)C=C2[C@@H]4[C@@H](C)[C@H](C)CC[C@]4(C)CC[C@]23C)[C@@]1(C)C(=O)OCn1cc(-c2ccc(F)cc2)nn1` [7j] are 2.64 µM and 2.64 ± 0.03 µM.
Turning to `CC(=O)O[C@@H]1CC[C@@]2(C)[C@@H](CC[C@]3(C)[C@@H]2C(=O)C=C2[C@@H]4[C@@H](C)[C@H](C)CC[C@]4(C)CC[C@]23C)[C@@]1(C)C(=O)OCn1cc(-c2ccc(C(F)(F)F)cc2)nn1` [7k], the IC50 in experiment [1] (setting [2]) stood at 1.39 µM; in experiment [1] (setting [3]), 1.39 ± 0.11 µM.
As for `C#CCOC(=O)[C@]1(C)C2CC[C@]3(C)C(C(=O)C=C4[C@@H]5[C@@H](C)[C@H](C)CC[C@]5(C)CC[C@]43C)[C@@]2(C)CC[C@H]1OC(C)=O` (stereo partly drawn) [compound 3, (Prop-2-yne-1-yl) 3α-acetyloxy-11-oxo-urs-12-en-24-oate], the 50% inhibitory concentration (IC50) in experiment [1] (setting [2]) was found to be 4.72 ± 0.52 µM.
On the same count and under the same terms, next, `C#CCOC(=O)C1(C)C(O)CCC2(C)C1CCC1(C)C2C(=O)C=C2C3C(C)C(C)CCC3(C)CCC21C` (stereo not drawn) [compound 4, (Prop-2-yne-1-yl) 3α-hydroxy-11-oxo-urs-12-en-24-oate]: 5.32 ± 0.15 µM.

For orientation: IC50 means the concentration needed to halve the response being measured. As usually defined, the Ki is a dissociation constant, usually derived from enzyme kinetics or from competition with a known ligand. Higher therefore signals lower affinity.
